Values of other authors, collected in patent US6845777B2, “Composition to reduce or quit smoking addiction” (priority 2001, dated 2005).

What was measured:
[1] = average adult

## CN1CCCC1c1cccnc1 (centres unmarked) [Nicotine]
In vivo
  nicotine from the intestine that reaches the bloodstream in a not metabolized form: about 30%
  peak levels in the arteries: approximately 40 micro-grams per milliliter of blood
  plasma half-life: 0.5 h and 2 h
Inhalation of tobacco smoke
  nicotine inhaled from a cigarette that is absorbed into the bloodstream: ≤ 90%
[1]
  lethal unit dose: about 60 mg
